Data: PubChem BioAssay (NCI)
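Growth conditions: 96-well plates. Treatment: test compound, 48 hours, 5 concentrations. Analysis: linear interpolation between bracketing concentrations; unreached endpoints set to highest concentration. At the TGI there is no net growth.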

tested on: IGROV1 ovarian; assay: inhibition of tumour cell growth, NCI panel, 48 h

Row | Compound | TGI
1 | N=C(N)C1CN(CCc2c[nH]c3ccccc23)C(=O)NC1=O (stereo unspecified) | > 100 µM
2 | O=c1[nH]nnc2c1sc1ncccc12 | > 100 µM
3 | Fc1ccc2c(c1)nc1n2C(c2c(Cl)cccc2Cl)SC1 (stereo unspecified) | 27.1 µM
4 | CCOC1(OCC)C2C=CC1C(COS(=O)(=O)c1ccc(C)cc1)C2COS(=O)(=O)c1ccc(C)cc1 (stereo unspecified) | > 100 µM
5 | O=C1Nc2cccc(Cl)c2/C1=C\c1c(Cl)nc2n1CCS2 | > 100 µM
6 | CC(=O)CCn1c(=S)sc2ccccc21 | > 100 µM
7 | C=CCc1cccc2cc(C(=O)NCc3ccccc3)c(=N)oc12 | > 100 µM
8 | CC1CC(OP(=O)(OCc2ccccc2)OCc2ccccc2)[C@@H](OCc2ccccc2)C(OCc2ccccc2)C1OCc1ccccc1 (stereo partly specified) | > 100 µM
9 | COc1cc(OC)c2nc(C)c(CCCl)c(Cl)c2c1 | > 100 µM
10 | C[C@H]1[C@H]2[C@H]3CC[C@@H]4[C@@]5(C)CC[C@H](O)C(C)(C)[C@@H]5CC[C@@]4(C)[C@]3(C)C[C@H](O)[C@@]2(C)C[C@H]2O[C@]21C | 71.1 µM
11 | N#C[C@H](c1ccccn1)c1nc2ccccc2nc1Cl | > 100 µM
12 | Cc1c(C)c2c(c(N)c1C#N)C(=O)N(NC(=O)c1ccccc1)C2=O | > 100 µM
13 | O=C(/C=C/c1ccccc1)CCC1C(=O)c2ccccc2C1=O | > 100 µM
14 | CC(=O)OC(OC(C)=O)c1ccc2ccc3cccc4ccc1c2c34 | 54.1 µM

tested on: OVCAR-8 ovarian; assay: inhibition of tumour cell growth, NCI panel, 48 h

Row | Compound | TGI
15 | CC(=O)Nc1sc(Br)cc1S(=O)(=O)c1ccc(Cl)cc1 | 68.7 µM
16 | CC1(C)C(C#N)C1C1=C(N2CCOCC2)[C@]2(C)C(OC(=O)c3ccccc3)CC[C@@H]2C1 (stereo partly specified) | > 100 µM
17 | CN(CCSCCN(C)C(=O)OC(C)(C)C)C(=O)OC(C)(C)C | > 100 µM
18 | N#Cc1n[nH]n(-c2ccc(Br)cc2)c1=O | > 100 µM
19 | CO[C@@]12C[C@@H](C)C3=CCC(C)=C3CC1=C(C)C(=O)O2 | > 100 µM
20 | N=C(N)C1CN(CCc2c[nH]c3ccccc23)C(=O)NC1=O (stereo unspecified) | > 100 µM
21 | O=c1[nH]nnc2c1sc1ncccc12 | > 100 µM
22 | Fc1ccc2c(c1)nc1n2C(c2c(Cl)cccc2Cl)SC1 (stereo unspecified) | 29 µM
23 | CCOC1(OCC)C2C=CC1C(COS(=O)(=O)c1ccc(C)cc1)C2COS(=O)(=O)c1ccc(C)cc1 (stereo unspecified) | > 100 µM
24 | O=C1Nc2cccc(Cl)c2/C1=C\c1c(Cl)nc2n1CCS2 | > 100 µM
25 | CC(=O)CCn1c(=S)sc2ccccc21 | > 100 µM
26 | C=CCc1cccc2cc(C(=O)NCc3ccccc3)c(=N)oc12 | > 100 µM
27 | CC1CC(OP(=O)(OCc2ccccc2)OCc2ccccc2)[C@@H](OCc2ccccc2)C(OCc2ccccc2)C1OCc1ccccc1 (stereo partly specified) | > 100 µM
28 | COc1cc(OC)c2nc(C)c(CCCl)c(Cl)c2c1 | > 100 µM
29 | C[C@H]1[C@H]2[C@H]3CC[C@@H]4[C@@]5(C)CC[C@H](O)C(C)(C)[C@@H]5CC[C@@]4(C)[C@]3(C)C[C@H](O)[C@@]2(C)C[C@H]2O[C@]21C | 48.2 µM
30 | N#C[C@H](c1ccccn1)c1nc2ccccc2nc1Cl | > 100 µM
31 | Cc1c(C)c2c(c(N)c1C#N)C(=O)N(NC(=O)c1ccccc1)C2=O | > 100 µM
32 | O=C(/C=C/c1ccccc1)CCC1C(=O)c2ccccc2C1=O | > 100 µM
33 | CC(=O)OC(OC(C)=O)c1ccc2ccc3cccc4ccc1c2c34 | > 100 µM
34 | CCOC(=O)CCC(NC(=O)Cc1ccc(Nc2nc3cc(F)c(F)cc3nc2C(=O)OCC)cc1)C(=O)OCC (stereo unspecified) | > 100 µM

tested on: HT29 colon; assay: inhibition of tumour cell growth, NCI panel, 48 h

Row | Compound | TGI
35 | CC(=O)Nc1sc(Br)cc1S(=O)(=O)c1ccc(Cl)cc1 | 30.8 µM
36 | CC1(C)C(C#N)C1C1=C(N2CCOCC2)[C@]2(C)C(OC(=O)c3ccccc3)CC[C@@H]2C1 (stereo partly specified) | > 100 µM
37 | CN(CCSCCN(C)C(=O)OC(C)(C)C)C(=O)OC(C)(C)C | > 100 µM
38 | N#Cc1n[nH]n(-c2ccc(Br)cc2)c1=O | > 100 µM
39 | CO[C@@]12C[C@@H](C)C3=CCC(C)=C3CC1=C(C)C(=O)O2 | > 100 µM
40 | N=C(N)C1CN(CCc2c[nH]c3ccccc23)C(=O)NC1=O (stereo unspecified) | > 100 µM
41 | O=c1[nH]nnc2c1sc1ncccc12 | > 100 µM
42 | Fc1ccc2c(c1)nc1n2C(c2c(Cl)cccc2Cl)SC1 (stereo unspecified) | 29.5 µM
43 | CCOC1(OCC)C2C=CC1C(COS(=O)(=O)c1ccc(C)cc1)C2COS(=O)(=O)c1ccc(C)cc1 (stereo unspecified) | > 100 µM
44 | O=C1Nc2cccc(Cl)c2/C1=C\c1c(Cl)nc2n1CCS2 | > 100 µM
45 | CC(=O)CCn1c(=S)sc2ccccc21 | > 100 µM
46 | C=CCc1cccc2cc(C(=O)NCc3ccccc3)c(=N)oc12 | > 100 µM
